The text below walks through data of ChEMBL document CHEMBL5465560, “Selectivity Literature for EUbOPEN Chemogenomic Library” (2024).

For test [1], the target named is T1, Serine/threonine-protein kinase NLK (Homo sapiens) (UniProt Q9UBE8).
T1 sequence (whole entry): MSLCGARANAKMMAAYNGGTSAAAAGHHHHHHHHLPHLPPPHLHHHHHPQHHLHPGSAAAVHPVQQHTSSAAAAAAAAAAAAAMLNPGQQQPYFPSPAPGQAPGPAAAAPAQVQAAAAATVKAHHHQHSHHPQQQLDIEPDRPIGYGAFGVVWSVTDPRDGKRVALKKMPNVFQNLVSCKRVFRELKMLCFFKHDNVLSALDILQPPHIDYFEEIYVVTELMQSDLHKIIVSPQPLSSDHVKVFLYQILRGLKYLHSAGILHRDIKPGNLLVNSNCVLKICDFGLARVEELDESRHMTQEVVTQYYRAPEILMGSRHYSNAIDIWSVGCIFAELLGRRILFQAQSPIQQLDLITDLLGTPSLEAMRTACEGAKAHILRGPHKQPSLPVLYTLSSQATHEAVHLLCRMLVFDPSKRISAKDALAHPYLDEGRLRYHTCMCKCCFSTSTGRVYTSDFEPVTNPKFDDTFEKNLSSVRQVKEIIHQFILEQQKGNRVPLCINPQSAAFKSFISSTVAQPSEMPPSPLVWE
The test is described as follows: Selectivity interaction (LanthaScreen Eu Kinase Binding Assay) EUB0001632a NLK. The settings on record: at 10 µM. In general terms: In TR-FRET formats the signal depends on donor and acceptor labels being close together.

Test [2] concerns the target Hepatocyte growth factor receptor (Homo sapiens, UniProt P08581). Nature of the test: (§1) Selectivity interaction (SelectScreen profiling (Invitrogen)) EUB0000607a MET. The settings on record: at 2 µM.
Test [3] has as its system Hepatocyte growth factor receptor (Homo sapiens), P08581 [M1250T]. The test is described as §1. The settings on record: at 2 µM.
Test [4] addresses Mitogen-activated protein kinase kinase kinase 1 (Homo sapiens, UniProt Q13233). Nature of the test: Selectivity interaction (KinomeScan (DiscoverX)) EUB0000655a MAP3K1. The conditions noted are these: at 10 µM.
In test [5] the target is Beta-1 adrenergic receptor (Homo sapiens, UniProt P08588). The test is described as follows: Selectivity interaction (GPCR panel (PDSP screen)) EUB0001079a ADRB1. The conditions noted are these: at 10 µM.
Test [6] concerns the target T2, Cyclin-dependent kinase 11A (Homo sapiens) (UniProt Q9UQ88).
T2 sequence (whole entry): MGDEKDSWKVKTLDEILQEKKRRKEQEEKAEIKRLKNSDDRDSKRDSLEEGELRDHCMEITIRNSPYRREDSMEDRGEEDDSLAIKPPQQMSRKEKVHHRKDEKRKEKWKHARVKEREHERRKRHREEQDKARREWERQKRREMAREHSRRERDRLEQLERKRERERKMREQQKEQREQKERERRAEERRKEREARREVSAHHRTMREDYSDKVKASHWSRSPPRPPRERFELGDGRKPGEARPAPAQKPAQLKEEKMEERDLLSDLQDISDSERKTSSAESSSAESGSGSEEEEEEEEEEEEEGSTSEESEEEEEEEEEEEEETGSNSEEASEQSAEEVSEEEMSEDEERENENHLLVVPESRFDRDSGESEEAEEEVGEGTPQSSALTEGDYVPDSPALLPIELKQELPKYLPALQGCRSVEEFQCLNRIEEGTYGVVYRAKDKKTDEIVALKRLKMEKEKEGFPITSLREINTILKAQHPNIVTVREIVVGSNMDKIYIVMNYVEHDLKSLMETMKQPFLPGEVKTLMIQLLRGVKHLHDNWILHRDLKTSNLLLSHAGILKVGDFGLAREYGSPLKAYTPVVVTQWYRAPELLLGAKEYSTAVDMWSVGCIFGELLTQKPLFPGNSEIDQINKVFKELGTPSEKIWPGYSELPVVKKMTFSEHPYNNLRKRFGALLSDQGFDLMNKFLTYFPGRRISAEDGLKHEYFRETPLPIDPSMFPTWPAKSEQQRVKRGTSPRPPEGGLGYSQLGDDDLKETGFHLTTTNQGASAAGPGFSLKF
The test is described as follows: Selectivity interaction (ActivX KiNativ screen (kinase selectivity in THP-1 cell lysates)) EUB0000639a CDK11A. The format is subcellular. The conditions noted are these: lysate, at 5 µM.

Test [7] deals with Serine/threonine-protein kinase PAK 1 (Homo sapiens) (UniProt Q13153). Nature of the test: Selectivity interaction (Kinase screening (Nanosyn)) EUB0000604a PAK1.
Test [8] has as its target T3, Serine/threonine-protein kinase D1 (Homo sapiens) (UniProt Q15139).
T3 sequence (whole entry): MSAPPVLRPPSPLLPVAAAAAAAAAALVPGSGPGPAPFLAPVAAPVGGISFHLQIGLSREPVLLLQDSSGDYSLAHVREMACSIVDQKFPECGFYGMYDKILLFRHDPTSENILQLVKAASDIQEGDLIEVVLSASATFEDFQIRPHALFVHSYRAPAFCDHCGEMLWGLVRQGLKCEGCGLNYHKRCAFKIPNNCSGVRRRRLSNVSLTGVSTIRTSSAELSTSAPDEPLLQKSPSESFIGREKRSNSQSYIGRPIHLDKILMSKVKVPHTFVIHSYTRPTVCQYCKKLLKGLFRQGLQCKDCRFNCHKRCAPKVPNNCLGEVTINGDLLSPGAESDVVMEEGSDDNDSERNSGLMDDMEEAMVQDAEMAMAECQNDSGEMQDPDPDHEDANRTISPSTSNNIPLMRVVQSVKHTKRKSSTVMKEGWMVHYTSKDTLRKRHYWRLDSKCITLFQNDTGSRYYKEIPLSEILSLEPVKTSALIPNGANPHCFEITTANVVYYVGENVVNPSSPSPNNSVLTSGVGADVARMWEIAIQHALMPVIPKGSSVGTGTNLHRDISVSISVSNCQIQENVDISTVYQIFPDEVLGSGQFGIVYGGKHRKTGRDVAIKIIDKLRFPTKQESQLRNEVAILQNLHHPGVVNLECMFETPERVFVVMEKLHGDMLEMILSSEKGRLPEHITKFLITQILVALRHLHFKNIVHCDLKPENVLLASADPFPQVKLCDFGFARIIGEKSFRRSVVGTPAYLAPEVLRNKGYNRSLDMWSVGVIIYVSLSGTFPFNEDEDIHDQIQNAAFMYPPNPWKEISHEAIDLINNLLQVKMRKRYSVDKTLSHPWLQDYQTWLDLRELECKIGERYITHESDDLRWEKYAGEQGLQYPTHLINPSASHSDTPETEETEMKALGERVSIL
The test is described as follows: Selectivity interaction (KinomeScan (DiscoverX)) EUB0001049a PRKD1. The conditions noted are these: at 1 µM.

The target of test [9] is Serine/threonine-protein kinase SIK2 (Homo sapiens) (UniProt Q9H0K1). Nature of the test: Selectivity interaction (KinomeScan (DiscoverX)) EUB0000092b SIK2. The conditions noted are these: at 10 µM.
Test [10] addresses Mitogen-activated protein kinase 9 (Homo sapiens, UniProt P45984). The test is described as follows: Selectivity interaction (Kinase panel (enzymatic assay)) EUB0000595a MAPK9.

Sequence of Beta-1 adrenergic receptor (P08588 whole entry, looked up): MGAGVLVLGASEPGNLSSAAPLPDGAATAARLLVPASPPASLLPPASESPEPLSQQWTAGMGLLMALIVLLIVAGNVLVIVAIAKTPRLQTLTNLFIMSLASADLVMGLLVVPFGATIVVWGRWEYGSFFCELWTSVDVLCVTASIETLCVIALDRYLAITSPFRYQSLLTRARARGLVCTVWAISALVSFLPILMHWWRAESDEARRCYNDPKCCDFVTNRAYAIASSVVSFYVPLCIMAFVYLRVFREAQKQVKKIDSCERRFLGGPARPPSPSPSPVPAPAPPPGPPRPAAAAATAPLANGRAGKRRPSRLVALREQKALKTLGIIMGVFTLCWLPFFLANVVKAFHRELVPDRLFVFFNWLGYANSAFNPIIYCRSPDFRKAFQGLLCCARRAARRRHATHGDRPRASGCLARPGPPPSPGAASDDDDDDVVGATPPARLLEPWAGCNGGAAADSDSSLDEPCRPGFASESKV
Sequence of Mitogen-activated protein kinase kinase kinase 1 (Q13233 whole entry): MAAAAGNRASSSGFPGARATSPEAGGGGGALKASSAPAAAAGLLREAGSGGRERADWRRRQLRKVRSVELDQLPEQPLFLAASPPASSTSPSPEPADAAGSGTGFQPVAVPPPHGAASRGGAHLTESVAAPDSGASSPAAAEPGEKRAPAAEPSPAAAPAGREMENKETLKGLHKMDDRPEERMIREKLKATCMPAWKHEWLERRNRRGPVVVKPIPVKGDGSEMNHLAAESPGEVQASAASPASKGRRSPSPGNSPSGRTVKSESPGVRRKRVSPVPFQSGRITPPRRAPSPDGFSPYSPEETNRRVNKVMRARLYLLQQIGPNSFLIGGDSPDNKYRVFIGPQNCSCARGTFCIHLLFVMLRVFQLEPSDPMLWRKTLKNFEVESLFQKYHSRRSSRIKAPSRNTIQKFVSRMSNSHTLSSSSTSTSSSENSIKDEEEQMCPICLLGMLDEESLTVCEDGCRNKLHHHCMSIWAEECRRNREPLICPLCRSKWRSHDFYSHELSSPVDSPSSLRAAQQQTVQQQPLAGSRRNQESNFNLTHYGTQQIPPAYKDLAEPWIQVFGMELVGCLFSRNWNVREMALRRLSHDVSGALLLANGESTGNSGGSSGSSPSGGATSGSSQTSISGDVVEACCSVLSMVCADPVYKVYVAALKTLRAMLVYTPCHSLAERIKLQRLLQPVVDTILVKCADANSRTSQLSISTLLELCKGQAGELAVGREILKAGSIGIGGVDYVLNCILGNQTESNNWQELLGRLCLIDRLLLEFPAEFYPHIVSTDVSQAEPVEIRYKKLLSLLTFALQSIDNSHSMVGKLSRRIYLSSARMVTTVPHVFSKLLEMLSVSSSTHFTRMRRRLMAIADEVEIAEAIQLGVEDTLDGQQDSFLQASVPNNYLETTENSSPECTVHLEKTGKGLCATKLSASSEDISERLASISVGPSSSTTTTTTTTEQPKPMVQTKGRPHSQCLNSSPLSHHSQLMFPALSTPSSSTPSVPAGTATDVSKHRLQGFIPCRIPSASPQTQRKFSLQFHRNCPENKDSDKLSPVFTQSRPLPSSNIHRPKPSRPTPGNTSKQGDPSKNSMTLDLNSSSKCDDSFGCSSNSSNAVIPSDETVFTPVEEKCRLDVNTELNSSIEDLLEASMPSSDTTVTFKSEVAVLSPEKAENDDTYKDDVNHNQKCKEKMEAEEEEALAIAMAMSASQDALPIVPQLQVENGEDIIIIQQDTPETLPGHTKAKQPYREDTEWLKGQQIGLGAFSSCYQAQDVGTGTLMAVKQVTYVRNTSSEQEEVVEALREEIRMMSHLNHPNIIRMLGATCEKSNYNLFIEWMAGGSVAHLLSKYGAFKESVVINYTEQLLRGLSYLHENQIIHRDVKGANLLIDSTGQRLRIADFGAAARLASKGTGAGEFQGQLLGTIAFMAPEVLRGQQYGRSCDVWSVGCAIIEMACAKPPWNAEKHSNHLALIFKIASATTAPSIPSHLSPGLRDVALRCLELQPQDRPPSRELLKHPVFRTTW
Sequence of Hepatocyte growth factor receptor (P08581 whole entry): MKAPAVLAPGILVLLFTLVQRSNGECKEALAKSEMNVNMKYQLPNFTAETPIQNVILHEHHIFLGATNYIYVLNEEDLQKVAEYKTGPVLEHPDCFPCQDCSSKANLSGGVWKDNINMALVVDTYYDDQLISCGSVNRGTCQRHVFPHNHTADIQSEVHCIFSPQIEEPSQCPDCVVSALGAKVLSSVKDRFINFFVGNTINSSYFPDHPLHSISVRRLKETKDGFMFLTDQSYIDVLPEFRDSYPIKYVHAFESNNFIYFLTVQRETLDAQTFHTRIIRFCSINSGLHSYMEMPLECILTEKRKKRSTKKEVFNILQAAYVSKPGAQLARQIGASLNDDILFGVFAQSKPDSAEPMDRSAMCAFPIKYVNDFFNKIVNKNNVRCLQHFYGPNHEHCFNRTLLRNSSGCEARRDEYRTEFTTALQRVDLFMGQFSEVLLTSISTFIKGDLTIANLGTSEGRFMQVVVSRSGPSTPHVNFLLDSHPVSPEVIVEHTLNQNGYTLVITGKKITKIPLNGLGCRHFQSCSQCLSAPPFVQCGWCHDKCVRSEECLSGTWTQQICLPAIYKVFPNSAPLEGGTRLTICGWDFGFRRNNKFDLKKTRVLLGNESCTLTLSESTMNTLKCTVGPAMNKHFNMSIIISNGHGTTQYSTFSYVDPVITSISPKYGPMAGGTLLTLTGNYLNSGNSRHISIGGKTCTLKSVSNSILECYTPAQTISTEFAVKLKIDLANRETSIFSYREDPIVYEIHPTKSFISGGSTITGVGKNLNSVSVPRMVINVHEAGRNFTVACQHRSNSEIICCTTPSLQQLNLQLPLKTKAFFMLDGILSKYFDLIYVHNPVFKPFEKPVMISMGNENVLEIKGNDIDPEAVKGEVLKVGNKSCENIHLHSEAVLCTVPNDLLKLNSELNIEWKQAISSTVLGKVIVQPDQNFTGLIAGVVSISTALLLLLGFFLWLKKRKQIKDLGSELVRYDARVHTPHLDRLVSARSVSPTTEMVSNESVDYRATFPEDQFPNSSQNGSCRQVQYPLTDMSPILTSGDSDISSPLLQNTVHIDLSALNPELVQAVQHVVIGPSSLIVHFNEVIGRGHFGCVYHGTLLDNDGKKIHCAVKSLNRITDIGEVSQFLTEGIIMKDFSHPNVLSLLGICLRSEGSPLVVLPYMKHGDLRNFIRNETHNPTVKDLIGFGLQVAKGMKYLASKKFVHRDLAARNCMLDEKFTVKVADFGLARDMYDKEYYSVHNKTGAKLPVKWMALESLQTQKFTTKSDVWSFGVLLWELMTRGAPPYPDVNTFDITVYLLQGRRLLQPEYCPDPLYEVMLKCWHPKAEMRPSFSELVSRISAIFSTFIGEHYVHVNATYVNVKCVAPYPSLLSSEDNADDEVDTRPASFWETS
Sequence of Serine/threonine-protein kinase PAK 1 (Homo sapiens) (Q13153 whole entry): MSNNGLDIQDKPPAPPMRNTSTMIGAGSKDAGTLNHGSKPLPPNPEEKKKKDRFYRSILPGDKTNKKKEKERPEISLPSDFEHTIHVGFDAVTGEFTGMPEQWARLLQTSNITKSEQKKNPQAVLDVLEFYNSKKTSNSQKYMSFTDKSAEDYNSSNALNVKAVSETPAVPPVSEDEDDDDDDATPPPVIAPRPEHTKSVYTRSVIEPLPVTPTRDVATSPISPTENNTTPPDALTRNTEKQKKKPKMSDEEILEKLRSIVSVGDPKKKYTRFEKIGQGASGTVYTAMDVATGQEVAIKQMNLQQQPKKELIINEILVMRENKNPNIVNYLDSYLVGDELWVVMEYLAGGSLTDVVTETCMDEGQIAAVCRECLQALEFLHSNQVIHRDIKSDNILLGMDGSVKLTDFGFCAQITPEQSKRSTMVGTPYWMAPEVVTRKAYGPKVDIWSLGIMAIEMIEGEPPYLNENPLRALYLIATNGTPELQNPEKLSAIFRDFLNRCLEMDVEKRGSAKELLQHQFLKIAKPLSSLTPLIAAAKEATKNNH
Sequence of Serine/threonine-protein kinase SIK2 (Homo sapiens) (Q9H0K1 whole entry, looked up): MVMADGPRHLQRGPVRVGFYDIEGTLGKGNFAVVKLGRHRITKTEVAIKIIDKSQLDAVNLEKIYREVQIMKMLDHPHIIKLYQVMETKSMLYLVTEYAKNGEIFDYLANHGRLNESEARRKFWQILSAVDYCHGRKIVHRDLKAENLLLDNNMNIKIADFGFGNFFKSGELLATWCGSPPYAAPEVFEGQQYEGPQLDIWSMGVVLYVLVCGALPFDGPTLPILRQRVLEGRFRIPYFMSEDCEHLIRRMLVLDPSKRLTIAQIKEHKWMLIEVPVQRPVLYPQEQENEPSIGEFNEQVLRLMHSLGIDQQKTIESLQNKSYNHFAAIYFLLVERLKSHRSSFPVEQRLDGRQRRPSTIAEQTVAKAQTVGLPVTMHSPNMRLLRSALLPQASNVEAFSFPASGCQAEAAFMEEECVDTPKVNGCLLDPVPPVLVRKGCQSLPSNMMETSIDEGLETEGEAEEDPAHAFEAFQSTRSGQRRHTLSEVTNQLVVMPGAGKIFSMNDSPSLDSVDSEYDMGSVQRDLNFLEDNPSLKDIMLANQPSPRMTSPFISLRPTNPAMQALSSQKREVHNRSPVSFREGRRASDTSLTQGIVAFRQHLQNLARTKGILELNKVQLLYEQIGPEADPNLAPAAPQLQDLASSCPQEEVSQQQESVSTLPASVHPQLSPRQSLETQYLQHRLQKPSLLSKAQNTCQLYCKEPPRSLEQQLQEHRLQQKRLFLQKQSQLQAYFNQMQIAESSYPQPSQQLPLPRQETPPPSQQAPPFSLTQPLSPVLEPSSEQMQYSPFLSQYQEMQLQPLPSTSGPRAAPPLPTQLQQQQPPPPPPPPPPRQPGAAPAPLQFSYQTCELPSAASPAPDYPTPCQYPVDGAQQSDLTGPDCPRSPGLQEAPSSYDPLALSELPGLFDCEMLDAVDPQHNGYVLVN

On to `Cn1cc(-n2cnc3c(NCc4nc5cc(Cl)c(Cl)cc5[nH]4)nc(N4CCOCC4)nc32)cn1`, for which, in test [1], the % of inhibition was 13.4%.
Take `CNC(=O)Nc1ccc(-c2nc(N3CC4CCC(C3)O4)c3cnn(C4CCC5(CC4)OCCO5)c3n2)cc1`: the % of inhibition in [2] stood at 2%; in [3], 1%.
The molecule `CN(C)CCOc1ccc(-c2nc(-c3ccncc3)c(-c3ccc4c(c3)CC/C4=N\O)[nH]2)cc1` gave a % of control in test [4] of 72%.
For the molecule `Nc1cnc(N2CCc3cc(S(=O)(=O)Nc4c(F)cc(Cl)cc4F)cc(N4CCCC4=O)c32)nc1` [TP-020n], the % of inhibition in [5] was 8.84%.
Take `CC[C@@H]1[C@H](F)C(=O)N[C@@H]1COc1nccc2cc(C(N)=O)c(OC)cc12` [ZIMLOVISERTIB]: the % of inhibition in test [6] was -20.8%.
Turning to `Cc1cnc(Nc2ccc(F)cc2Cl)nc1-c1c[nH]c(C(=O)N[C@H](CO)c2cccc(Cl)c2)c1`, the % of inhibition in test [7] was 3%.
As to `COc1cc(Nc2nc(C)cc(-c3cnn4nc(OC)ccc34)n2)cc(C(F)(F)F)c1`, the % of control in test [8] was found to be 100%.
As for `CCC(=O)N1CCN(c2ccc(-n3c(=O)ccc4cnc5ccc(-c6cnc7ccccc7c6)cc5c43)cc2C(F)(F)F)CC1`, the % of control in [9] amounted to 23%.
The term IC50 denotes the concentration that gives 50% inhibition. `COCC(=O)NC/C=C/c1ccc2ncnc(Nc3ccc(Oc4ccc(C)nc4)c(C)c3)c2c1` [CP-724714] yielded an IC50 in [10] of over 10 µM.
